Experimental data as given in patent US6737383B1, “Herbicidal oxadiazolidines” (priority 1999, dated 2004).

What was measured:
[1] = test system: giant foxtail; experiment: Test B pre/postemergence giant foxtail; assay type: in vivo, Setaria faberii
Method in brief: (§1)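 Herbicidal effect was estimated by eye on a ten-point control scale after plants spent twelve to sixteen days in a greenhouse following soil or foliar treatment. Foliar sprays targeted plants at one to four leaves; all doses were formulated in a non-phytotoxic solvent with surfactant.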

[2] = test system: blackgrass; experiment: Test B pre/postemergence blackgrass; assay type: in vivo, Alopecurus myosuroides
Method in brief: as §1

[3] = test system: surinam grass; experiment: Test B pre/postemergence surinam grass; assay type: in vivo, Brachiaria decumbens
Method in brief: as §1

[4] = test system: purple nutsedge; experiment: Test B pre/postemergence purple nutsedge; assay type: in vivo, Cyperus rotundus
Method in brief: as §1

[5] = test system: pigweed; experiment: Test B pre/postemergence pigweed; assay type: in vivo, Amaranthus retroflexus
Method in brief: as §1

[6] = test system: morningglory; experiment: Test B pre/postemergence morningglory; assay type: in vivo, Ipomoea hederacea
Method in brief: as §1

[7] = test system: bedstraw; experiment: Test B pre/postemergence bedstraw; assay type: in vivo, Galium aparine
Method in brief: as §1

[8] = test system: sugar beet; experiment: Test B pre/postemergence sugar beet; assay type: in vivo, Beta vulgaris
Method in brief: as §1

[9] = test system: corn; experiment: Test B pre/postemergence corn; assay type: in vivo, Zea mays
Method in brief: as §1

[10] = test system: rice; experiment: Test B flood test rice; assay type: in vivo, Oryza sativa
Method in brief: (§2)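 Each value is a visual injury score relative to controls, with 10 meaning complete control and 0 no effect. Evaluation took place twelve to sixteen days after the 2-leaf-stage plants were treated and kept in the greenhouse.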

[11] = test system: wild oat; experiment: Test B pre/postemergence wild oat; assay type: in vivo, Avena fatua
Method in brief: as §1

[12] = test system: rape; experiment: Test B pre/postemergence rape; assay type: in vivo, Brassica napus
Method in brief: as §1

[13] = test system: bamyardgrass; experiment: Test B flood test barnyardgrass; assay type: in vivo, Echinochloa crus-galli
Method in brief: as §2

[14] = test system: wheat; experiment: Test B pre/postemergence wheat; assay type: in vivo, Triticum aestivum
Method in brief: as §1

[15] = test system: smallflower flatsedge; experiment: Test B flood test smallflower flatsedge; assay type: in vivo, Cyperus difformis
Method in brief: as §2

[16] = test system: crabgrass; experiment: Test B pre/postemergence crabgrass; assay type: in vivo, Digitaria sanguinalis
Method in brief: as §1

[17] = Postemergence, Rate 62 g/ha, scale 0 to 10, 0 is no effect, 10 is complete control
[18] = Postemergence, Rate 250 g/ha, scale 0 to 10, 0 no effect, 10 complete control
[19] = Preemergence, Rate 62 g/ha, scale 0 to 10 (0 no effect, 10 complete control)
[20] = Preemergence, Rate 125 g/ha, scale 0 to 10 (0 no effect, 10 complete control)
[21] = Preemergence, Rate 250 g/ha, scale of 0 to 10 where 0 is no effect and 10 is complete control
[22] = Preemergence, Rate 500 g/ha, scale 0 (no effect) to 10 (complete control)
[23] = Rate 125 g/ha, Postemergence, scale 0 to 10, 0 no effect, 10 complete control
[24] = Rate 500 g/ha, Postemergence, scale 0 to 10, 0 no effect, 10 complete control
[25] = Rate 31 g/ha, Postemergence section (flood test species), scale 0 to 10
[26] = Rate 125 g/ha, Postemergence section (flood test species), scale 0 to 10, 0 no effect, 10 complete control
[27] = Rate 250 g/ha, headed Pre-emergence (flood test species), scale 0 to 10 (0 no effect, 10 complete control)
[28] = Rate 500 g/ha, headed Pre-emergence (flood test species), scale 0 to 10 (0 no effect, 10 complete control)
[29] = Rate 1000 g/ha, Pre-emergence (as headed), scale 0 to 10
[30] = Rate 2000 g/ha, Pre-emergence (as headed), scale 0 to 10
[31] = flood test, listed under Postemergence, Rate 250 g/ha, scale 0 to 10, 0 no effect, 10 complete control

In the case of `Cc1ccccc1Cn1c(=O)on(C(=O)N(c2ccc(F)cc2F)C(C)C)c1=O` [Compound 87], the “Giant foxtail plant response rating” value [1, 17] is reported as 0, the “Giant foxtail plant response rating” value [1, 18] is reported as 3 and the “Giant foxtail plant response rating” value [1, 19] is reported as 8. For the same compound, the “Plant response rating, Giant foxtail” value [1, 20] was 9, the “Plant response rating, Giant foxtail” value [1, 21] was 10 and the “Giant foxtail plant response rating” value [1, 22] was 10. The “Giant foxtail plant response rating” value [1, 23] was 2, the “Giant foxtail plant response rating” value [1, 24] was 6 and the “Blackgrass plant response rating” value [2, 17] was 0. The “Blackgrass plant response rating” value [2, 18] was 1, the “Blackgrass plant response rating” value [2, 19] was 2 and the “Plant response rating, Blackgrass” value [2, 20] was 3. For the same compound, the “Plant response rating, Blackgrass” value [2, 21] was 5, the “Blackgrass plant response rating” value [2, 22] was 7 and the “Blackgrass plant response rating” value [2, 23] was 0. The “Blackgrass plant response rating” value [2, 24] was 4, the “B. signalgrass plant response rating” value [3, 17] was 0 and the “B. signalgrass plant response rating” value [3, 18] was 0. For the same compound, the “B. signalgrass plant response rating” value [3, 19] was 0, the “Plant response rating, B. signalgrass” value [3, 20] was 2 and the “Plant response rating, B. signalgrass” value [3, 21] was 4. For the same compound, the “B. signalgrass plant response rating” value [3, 22] was 5, the “B. signalgrass plant response rating” value [3, 23] was 0 and the “B. signalgrass plant response rating” value ([3]; Rate 500 g/ha, Postemergence, scale of 0 to 10 where 0 is no effect and 10 is complete control) was 2. For the same compound, the “Nutsedge plant response rating” value [4, 17] was 0, the “Nutsedge plant response rating” value [4, 18] was 0 and the “Nutsedge plant response rating” value [4, 19] was 0. The “Plant response rating, Nutsedge” value [4, 20] was 0, the “Plant response rating, Nutsedge” value [4, 21] was 0 and the “Nutsedge plant response rating” value [4, 22] was 0. For the same compound, the “Nutsedge plant response rating” value [4, 23] was 0, the “Nutsedge plant response rating” value [4, 24] was 0 and the “Redroot pigweed plant response rating” value [5, 17] was 0. For the same compound, the “Redroot pigweed plant response rating” value [5, 18] was 5, the “Redroot pigweed plant response rating” value [5, 19] was 4 and the “Plant response rating, Redroot pigweed” value [5, 20] was 4. For the same compound, the “Plant response rating, Redroot pigweed” value [5, 21] was 8, the “Redroot pigweed plant response rating” value [5, 22] was 10 and the “Redroot pigweed plant response rating” value [5, 23] was 0. The “Redroot pigweed plant response rating” value [5, 24] was 2, the “Morningglory plant response rating” value [6, 17] was 4 and the “Morningglory plant response rating” value [6, 18] was 7. The “Morningglory plant response rating” value [6, 19] was 0, the “Plant response rating, Morningglory” value [6, 20] was 0 and the “Plant response rating, Morningglory” value [6, 21] was 0. The “Morningglory plant response rating” value [6, 22] was 0, the “Morningglory plant response rating” value [6, 23] was 7 and the “Morningglory plant response rating” value [6, 24] was 9. The “Bedstraw plant response rating” value [7, 17] was 2, the “Bedstraw plant response rating” value [7, 18] was 6 and the “Bedstraw plant response rating” value [7, 19] was 0. For the same compound, the “Plant response rating, Bedstraw” value [7, 20] was 0, the “Plant response rating, Bedstraw” value [7, 21] was 0 and the “Bedstraw plant response rating” value [7, 22] was 3. For the same compound, the “Bedstraw plant response rating” value [7, 23] was 4, the “Bedstraw plant response rating” value [7, 24] was 8 and the “Sugarbeets plant response rating” value [8, 17] was 0. The “Sugarbeets plant response rating” value [8, 18] was 3, the “Sugarbeets plant response rating” value [8, 19] was 0 and the “Plant response rating, Sugarbeets” value [8, 20] was 0. The “Plant response rating, Sugarbeets” value [8, 21] was 3, the “Sugarbeets plant response rating” value [8, 22] was 9 and the “Sugarbeets plant response rating” value [8, 23] was 3. The “Sugarbeets plant response rating” value [8, 24] was 8, the “Corn plant response rating” value [9, 17] was 0 and the “Corn plant response rating” value [9, 18] was 0. The “Corn plant response rating” value [9, 19] was 0, the “Plant response rating, Corn” value [9, 20] was 0 and the “Plant response rating, Corn” value [9, 21] was 0. The “Corn plant response rating” value [9, 22] was 2, the “Corn plant response rating” value [9, 23] was 0 and the “Corn plant response rating” value [9, 24] was 2. For the same compound, the “Rice plant response rating” value [10, 17] was 0, the “Rice plant response rating” value [10, 25] was 0 and the “Rice plant response rating” value [10, 26] was 0. For the same compound, the “Rice plant response rating” value [10, 27] was 0, the “Plant response rating, Rice” value [10, 28] was 0 and the “Rice plant response rating” value [10, 29] was 0. For the same compound, the “Rice plant response rating” value [10, 30] was 0, the “Rice plant response rating” value [10, 31] was 0 and the “Wild oats plant response rating” value [11, 17] was 0. The “Wild oats plant response rating” value [11, 18] was 0, the “Wild oats plant response rating” value [11, 19] was 0 and the “Plant response rating, Wild oats” value [11, 20] was 0. The “Plant response rating, Wild oats” value [11, 21] was 4, the “Wild oats plant response rating” value [11, 22] was 3 and the “Wild oats plant response rating” value [11, 23] was 0. The “Wild oats plant response rating” value [11, 24] was 3, the “Rape plant response rating” value [12, 17] was 0 and the “Rape plant response rating” value [12, 18] was 2. For the same compound, the “Rape plant response rating” value [12, 19] was 0, the “Plant response rating, Rape” value [12, 20] was 0 and the “Plant response rating, Rape” value [12, 21] was 0. The “Rape plant response rating” value [12, 22] was 5, the “Rape plant response rating” value [12, 23] was 0 and the “Rape plant response rating” value [12, 24] was 3. The “Barnyardgrass plant response rating” value [13, 17] was 0, the “Barnyardgrass plant response rating” value [13, 25] was 0 and the “Barnyardgrass plant response rating” value [13, 26] was 0. For the same compound, the “Barnyardgrass plant response rating” value [13, 27] was 0, the “Plant response rating, Barnyardgrass” value [13, 28] was 0 and the “Barnyardgrass plant response rating” value [13, 29] was 0. The “Barnyardgrass plant response rating” value ([13]; Rate 2000 g/ha, Pre-emergence (as headed), scale 0 to 10, 0 no effect, 10 complete control) was 0, the “Barnyardgrass plant response rating” value [13, 31] was 0 and the “Wheat plant response rating” value [14, 17] was 0. The “Wheat plant response rating” value [14, 18] was 0, the “Wheat plant response rating” value [14, 19] was 0 and the “Plant response rating, Wheat” value [14, 20] was 0. For the same compound, the “Plant response rating, Wheat” value [14, 21] was 0, the “Wheat plant response rating” value [14, 22] was 0 and the “Wheat plant response rating” value [14, 23] was 0. The “Wheat plant response rating” value [14, 24] was 2, the “S. Flatsedge plant response rating” value [15, 17] was 0 and the “S. Flatsedge plant response rating” value ([15]; Pre-emergence, Rate 1000 g/ha, scale 0 to 10 (0 no effect, 10 complete control)) was 0. The “S. Flatsedge plant response rating” value [15, 26] was 0, the “S. Flatsedge plant response rating” value [15, 27] was 0 and the “Plant response rating, S. Flatsedge” value [15, 28] was 0. For the same compound, the “S. Flatsedge plant response rating” value [15, 30] was 0, the “S. Flatsedge plant response rating” value [15, 31] was 0 and the “Crabgrass plant response rating” value [16, 17] was 2. For the same compound, the “Crabgrass plant response rating” value [16, 18] was 5, the “Crabgrass plant response rating” value [16, 19] was 5 and the “Plant response rating, Crabgrass” value [16, 20] was 8. For the same compound, the “Plant response rating, Crabgrass” value [16, 21] was 10, the “Crabgrass plant response rating” value [16, 22] was 10 and the “Crabgrass plant response rating” value [16, 23] was 3. The “Crabgrass plant response rating” value [16, 24] was 9.
